The values that follow come from PubChem BioAssay (NCI).

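Test compounds were applied to cells in 96-well plates for 48 hours at 5 doses. Abbreviation: GI50, concentration required for 50% inhibition of growth. At the TGI there is no net growth.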 Bounds are passed on as bounds.

Among the test systems are HCT-116 colon; OVCAR-8 ovarian; MDA-MB-435; UACC-62 melanoma; MALME-3M melanoma; M14 melanoma; T-47D breast; NCI-H23 lung; SF-268 CNS; HS 578T breast.
What all share (assay): NCI-60 cell line screen, 48 h

With `Cc1c2ccn(O)cc2c(C)c2c1nc1ccccc12`, the TGI in the assay on HCT-116 colon is 24.7 µM; in the assay on OVCAR-8 ovarian, 64.4 µM; with MDA-MB-435 it was > 100 µM; in the assay with UACC-62 melanoma, 41.6 µM; in the assay on MALME-3M melanoma it was > 41.8 µM; with M14 melanoma it was > 100 µM. For the same compound, the TGI in the assay on T-47D breast was 8.93 µM; in the assay on NCI-H23 lung, 30.2 µM; with SF-268 CNS it was 27.5 µM; in the assay on HS 578T breast, 8.44 µM.
For the compound `N#Cc1c(NCc2ccccc2)nc(NCc2ccccc2)c(C#N)c1-c1ccc(O)cc1`, the GI50 in the assay with HCT-116 colon was 14.5 µM; with OVCAR-8 ovarian it was 58.1 µM; in the assay on MDA-MB-435 it was 25.2 µM; with UACC-62 melanoma it was 21.5 µM; in the assay on MALME-3M melanoma it was 29.5 µM; in the assay with M14 melanoma, 29.9 µM. Further, the GI50 was 23.8 µM with T-47D breast, 45.3 µM with NCI-H23 lung, 27.3 µM in the assay with SF-268 CNS and 22.9 µM in the assay on HS 578T breast. Besides, the TGI in the assay on HCT-116 colon is 34.1 µM; in the assay on OVCAR-8 ovarian it was > 100 µM; in the assay with MDA-MB-435, 69.8 µM; in the assay with UACC-62 melanoma, > 100 µM; in the assay with MALME-3M melanoma, 68.5 µM; with M14 melanoma, > 100 µM. For the same compound, the TGI with T-47D breast, in the assay on NCI-H23 lung, in the assay with SF-268 CNS and with HS 578T breast was > 100 µM throughout.
`CSC(=NC#N)S/C=C/C(=O)c1ccccc1`: the GI50 in the assay with HCT-116 colon was 17.9 µM; with OVCAR-8 ovarian it was 38.1 µM; with MDA-MB-435 it was 34.7 µM; with UACC-62 melanoma, 33.4 µM; in the assay with MALME-3M melanoma, 31.2 µM; with M14 melanoma, 24.7 µM. Moreover, the GI50 in the assay on T-47D breast was > 100 µM; with NCI-H23 lung, 23.8 µM; in the assay on SF-268 CNS it was 43.8 µM; in the assay on HS 578T breast, 39 µM. Moreover, the TGI with HCT-116 colon is 34.1 µM; with OVCAR-8 ovarian, > 100 µM; in the assay with MDA-MB-435, > 100 µM; with UACC-62 melanoma it was > 100 µM; in the assay on MALME-3M melanoma, 74.7 µM; in the assay on M14 melanoma, 65.8 µM. The TGI with T-47D breast is > 100 µM; in the assay on NCI-H23 lung, 58.8 µM; with SF-268 CNS, > 100 µM; with HS 578T breast, 96.8 µM.
Take `CN(C)CCCN(CCC1CCCCC1)CCC1CCCCC1`: the GI50 with HCT-116 colon is 1.57 µM; in the assay on OVCAR-8 ovarian, 3.12 µM; in the assay on MDA-MB-435 it was 1.35 µM; with UACC-62 melanoma it was 1.79 µM; with MALME-3M melanoma it was 1.83 µM; with M14 melanoma, 1.87 µM. Besides, the GI50 with T-47D breast was 1.57 µM; in the assay with NCI-H23 lung, 4.8 µM; in the assay on SF-268 CNS, 5.5 µM; in the assay with HS 578T breast it was 1.9 µM. Also, the TGI was 3.64 µM in the assay with HCT-116 colon; 7.12 µM in the assay with OVCAR-8 ovarian; 3.03 µM with MDA-MB-435; 3.35 µM with UACC-62 melanoma; 3.77 µM in the assay on MALME-3M melanoma; 3.66 µM with M14 melanoma. In addition, the TGI came out at 3.52 µM with T-47D breast, 17.9 µM in the assay on NCI-H23 lung, 18 µM with SF-268 CNS and 4.76 µM in the assay on HS 578T breast.
Turning to `COc1ccc(C=Nc2c(C(=O)Nc3cccc(Cl)c3C)sc3nc(C)c(C(=O)/C=C/c4ccc(OC)cc4)cc23)cc1`, the GI50 with HCT-116 colon is 0.362 µM; in the assay with OVCAR-8 ovarian, 1.38 µM; in the assay with MDA-MB-435 it was 0.103 µM; with UACC-62 melanoma it was 0.312 µM; with MALME-3M melanoma, 0.599 µM; with M14 melanoma, 0.201 µM. Further, the GI50 in the assay with T-47D breast was 1.28 µM; in the assay on NCI-H23 lung, 0.917 µM; with SF-268 CNS, 1.6 µM; in the assay on HS 578T breast it was 0.458 µM. Further, the TGI was > 50 µM in the assay on HCT-116 colon; > 50 µM with OVCAR-8 ovarian; 0.227 µM in the assay on MDA-MB-435; > 23.1 µM in the assay on UACC-62 melanoma; > 50 µM in the assay on MALME-3M melanoma; 1.57 µM in the assay with M14 melanoma. The TGI with T-47D breast is > 50 µM; in the assay on NCI-H23 lung, 17.1 µM; in the assay with SF-268 CNS, > 50 µM; in the assay with HS 578T breast, 7.67 µM.
Turning to `CO[C@H]1C=CO[C@@]2(C)Oc3c(C)c(O)c4c(O)c(c(CN5CCN(C)CC5)c(O)c4c3C2=O)NC(=O)/C(C)=C\C=C[C@H](C)[C@H](O)C(C)[C@@H](O)C(C)[C@H](OC(C)=O)[C@@H]1C` (stereo not given in full), the TGI in the assay on HCT-116 colon is 35.9 µM; in the assay with OVCAR-8 ovarian it was > 100 µM; in the assay on MDA-MB-435 it was > 60.8 µM; in the assay on UACC-62 melanoma, > 100 µM; with MALME-3M melanoma, > 100 µM; in the assay on M14 melanoma it was > 75 µM. Moreover, the TGI was > 100 µM in the assay with T-47D breast, > 77.6 µM with NCI-H23 lung, > 100 µM in the assay with SF-268 CNS and > 100 µM in the assay with HS 578T breast.
For the compound `CN(CCCCCl)P(=O)(OCCS(=O)(=O)CC(NC(=O)CCC(N)C(=O)O)C(=O)NC(C(=O)O)c1ccccc1)OCC1OC(n2ccc(N)nc2=O)C(O)C1O` (stereo not given), the GI50 with HCT-116 colon was 5.22 µM; in the assay with OVCAR-8 ovarian, 5.4 µM; in the assay with MDA-MB-435, 28.3 µM; in the assay on UACC-62 melanoma, 35.8 µM; with MALME-3M melanoma it was 12.6 µM; with M14 melanoma, 4.37 µM. Besides, the GI50 in the assay with T-47D breast is 23.1 µM; with NCI-H23 lung it was 22.6 µM; in the assay on SF-268 CNS it was 49.8 µM; with HS 578T breast, > 36.8 µM. In addition, the TGI with HCT-116 colon, with OVCAR-8 ovarian, with MDA-MB-435, in the assay on UACC-62 melanoma, with MALME-3M melanoma and in the assay with M14 melanoma was > 75 µM in each case. In addition, the TGI with T-47D breast, with NCI-H23 lung, in the assay on SF-268 CNS and in the assay on HS 578T breast was > 75 µM throughout.
Regarding `COC1C(O)CC(OC2CC(OC3CC(O[C@@H]4C(=O)c5c(cc6cc(OC7CC(OC8CC(O)C(O)C(C)O8)C(O)C(C)O7)c(C)c(O)c6c5O)CC4[C@H](OC)C(=O)O)OC(C)C3O)OC(C)C2O)OC1C` (stereo not given in full), the GI50 with HCT-116 colon is 1.25 µM; in the assay with OVCAR-8 ovarian, 2.27 µM; in the assay with MDA-MB-435, 2.56 µM; with UACC-62 melanoma, 0.842 µM; with MALME-3M melanoma, 2.37 µM; in the assay on M14 melanoma it was 3.14 µM. The GI50 was 1.33 µM with T-47D breast, 1.63 µM with NCI-H23 lung, 2.64 µM in the assay with SF-268 CNS and 1.93 µM in the assay with HS 578T breast. In addition, the TGI with HCT-116 colon is > 33.3 µM; in the assay on OVCAR-8 ovarian, > 33.3 µM; in the assay with MDA-MB-435, 24.7 µM; in the assay with UACC-62 melanoma, 2.54 µM; in the assay on MALME-3M melanoma, 28.6 µM; with M14 melanoma it was > 33.3 µM. Besides, the TGI in the assay on T-47D breast was 32.1 µM; with NCI-H23 lung, 17.2 µM; in the assay on SF-268 CNS it was > 33.3 µM; in the assay with HS 578T breast it was > 33.3 µM.
